From US8673336B2, “Composition, system, and method for modulating release kinetics in implantable drug delivery devices by modifying drug solubility” (Innovational Holdings LLC, priority 2005, dated 2014)
Where a name gives a salt, the structure may show the parent alone.

Assays:
[1] = in vitro cumulative release from low dose imatinib stents (PLGA 85/15 matrix, base and cap); assay type: physicochemical; settings: about 160 micrograms per 16 mm stent, average of three stents
Experimental: The imatinib free-base (slow release) and the imatinib meslate salt (Gleevec) were loaded into holes in stents in a polymer matrix of PLGA 85/15 with a PLGA 85/15 base and cap and the release from the stents was recorded in FIG. 1. A solvent such as NMP or anisol was used to deposit the drug/polymer compositions and then evaporated. The releases shown in FIG. 1 are the average of three stents each. Methods and systems for depositing polymers and drugs within holes in stents are described further in WO 2004/026182 which is incorporated herein by reference.
The dosage for this example was about 160 micrograms normalized for a 16 mm long stent. The free base and salt forms where then combined in the ratios of 86:14, 66:34, and 46:54 and it was shown that the rate of the release (solubility of the drug) is proportional to the percentage of free base or salt. Thus, the selection of a percentage of free base and salt can be used to provide a selected drug release kinetic.
The addition of the free-base form allows the release to be extended past 48 hours to about 72 hours for a formulation of 46% free base and to about 120 hours for a formulation of about 66% free base. While a formulation with 86% free base continues to release imatinib in-vitro at 168 hours and beyond.

[2] = effect of counter ions on in vitro release of imatinib from stents; assay type: physicochemical; settings: total drug load 150 μg to 200 μg; PLA-PLC base and cap, PLGA matrix
Experimental: FIG. 4 illustrates the effect of several counter ions on the in vitro release of a drug, in this example imatinib. Total drug load was 150 μg to 200 μg. PLA-PLC was used in the base and cap while the matrix containing the drug was PLGA as in Examples 1 and 2.

| rate of release from stents (FIG. 1) [1] | time until release is essentially complete / extent of release duration (FIG. 1) [1] | rate of release from stents (FIG. 1) ([1]; listed as salt) | Structure (SMILES) | cumulative in vitro release (FIG. 4) [2] |
| --- | --- | --- | --- | --- |
| slowest release |  |  | Cc1ccc(NC(=O)c2ccc(CN3CCN(C)CC3)cc2)cc1Nc1nccc(-c2cccnc2)n1 [free base, imatinib] |  |
|  | about 48 hours | fastest release | Cc1ccc(NC(=O)c2ccc(CN3CCN(C)CC3)cc2)cc1Nc1nccc(-c2cccnc2)n1 [imatinib mesylate] | significantly higher cumulative release, relatively quickly, than imatinib salicylate |
|  |  |  | Cc1ccc(NC(=O)c2ccc(CN3CCN(C)CC3)cc2)cc1Nc1nccc(-c2cccnc2)n1.O=C(O)c1ccccc1O [imatinib salicylate] | significantly higher that that of imatinib |
